Test results from patent US12234227B2, “Pyrazole derivatives as H4 antagonist compounds” (NXERA PHARMA UK LIMITED, priority 2018, dated 2025).
Counter-ions that a name gives are not always drawn.

Experiments:
human H4 receptor [1] = molecular target: T1, human H4 receptor (Homo sapiens, UniProt Q9H3N8); assay: H4 Antagonist Functional cAMP Gi Assay; format: cell-based; settings: H4 antagonist activity; for Kb: read-out: Human H4 CAMP fpKb (converted)
T1 construct: expressed in transfected cells; host or cells: HEKf cells transduced with baculovirus
Protocol: H4 Antagonist Functional cAMP Gi Assay
HEKf cells were infected overnight using baculovirus expressing the human H4 receptor, then centrifuged at 1,200 rpm for 5 min, frozen in cell freezing medium (Sigma) and stored at −150° C. On the day of assay, the cells were thawed and resuspended in HBSS with 500 nM IBMX to achieve a density of 1,500 cells/well. H4 ligands were prepared in DMSO and stamped by LabCyte ECHO acoustic dispensing at 25 nL in low volume plates. 10 μL/well cells were plated in the presence of 1 μM forskolin, subjected to centrifugation at 1,200 rpm for 1 min and incubated for 30 min prior to addition of Cisbio cAMP detection reagents to a total volume 20 μL/well. For the antagonist assay, cells were pre-incubated with H4 antagonist ligands for 30 min prior to addition of EC80 concentration of histamine and a further 30 min incubation. Following detection reagent addition and shaking at room temperature for 60 min, cAMP accumulation was measured using HTRF on a PheraStar plate reader. EC50 values were generated using a 4-parameter logistical fit equation to quantify agonist potencies. Functional antagonist affinity values were generated using the Cheng-Prusoff equation to calculate a pKb value using the antagonist assay data.

hERG = hERG (Homo sapiens, UniProt Q12809); assay: hERG Assay (QPatch automated patch clamp; single-concentration assay at 30 μM and pIC50 assay); settings: for inhibition at 30 µM: human, CHO cells stably expressing hERG
human H4 receptor [2] = molecular target: T1, human H4 receptor; assay: H4 Antagonist Functional Dynamic Mass Redistribution Assay; format: cell-based; settings: H4 antagonist activity, read-out: Human H4 DMR fpKb (converted)
Protocol: H4 Antagonist Functional Dynamic Mass Redistribution Assay
HEKf cells were infected using baculovirus expressing the human H4 receptor, plated into fibronectin-coated EPIC plates at a density of 10,000 cells/well and incubated overnight at 37° C. The medium on cells was changed to 30 μL HBSS with 20 mM HEPES per well and 30 nL DMSO were added per well by LabCyte ECHO acoustic dispensing. Following 2 h equilibration at room temperature, 30 nL of H4 ligands prepared in DMSO were stamped by LabCyte ECHO acoustic dispensing into seeded EPIC plates and cellular dynamic mass redistribution was monitored using a Corning EPIC plate reader. Following 45 min measurement, 30 nL/well of histamine EC80 was added and monitored to obtain antagonist assay data. Maximum baseline-corrected responses in […] were used to generate concentration response curves. EC50 values were generated using a 4-parameter logistical fit equation to quantify agonist potencies. Functional antagonist affinity values were generated using the Cheng-Prusoff equation to calculate a pKb value using the antagonist assay data.

Chain of hERG (Q12809 whole entry): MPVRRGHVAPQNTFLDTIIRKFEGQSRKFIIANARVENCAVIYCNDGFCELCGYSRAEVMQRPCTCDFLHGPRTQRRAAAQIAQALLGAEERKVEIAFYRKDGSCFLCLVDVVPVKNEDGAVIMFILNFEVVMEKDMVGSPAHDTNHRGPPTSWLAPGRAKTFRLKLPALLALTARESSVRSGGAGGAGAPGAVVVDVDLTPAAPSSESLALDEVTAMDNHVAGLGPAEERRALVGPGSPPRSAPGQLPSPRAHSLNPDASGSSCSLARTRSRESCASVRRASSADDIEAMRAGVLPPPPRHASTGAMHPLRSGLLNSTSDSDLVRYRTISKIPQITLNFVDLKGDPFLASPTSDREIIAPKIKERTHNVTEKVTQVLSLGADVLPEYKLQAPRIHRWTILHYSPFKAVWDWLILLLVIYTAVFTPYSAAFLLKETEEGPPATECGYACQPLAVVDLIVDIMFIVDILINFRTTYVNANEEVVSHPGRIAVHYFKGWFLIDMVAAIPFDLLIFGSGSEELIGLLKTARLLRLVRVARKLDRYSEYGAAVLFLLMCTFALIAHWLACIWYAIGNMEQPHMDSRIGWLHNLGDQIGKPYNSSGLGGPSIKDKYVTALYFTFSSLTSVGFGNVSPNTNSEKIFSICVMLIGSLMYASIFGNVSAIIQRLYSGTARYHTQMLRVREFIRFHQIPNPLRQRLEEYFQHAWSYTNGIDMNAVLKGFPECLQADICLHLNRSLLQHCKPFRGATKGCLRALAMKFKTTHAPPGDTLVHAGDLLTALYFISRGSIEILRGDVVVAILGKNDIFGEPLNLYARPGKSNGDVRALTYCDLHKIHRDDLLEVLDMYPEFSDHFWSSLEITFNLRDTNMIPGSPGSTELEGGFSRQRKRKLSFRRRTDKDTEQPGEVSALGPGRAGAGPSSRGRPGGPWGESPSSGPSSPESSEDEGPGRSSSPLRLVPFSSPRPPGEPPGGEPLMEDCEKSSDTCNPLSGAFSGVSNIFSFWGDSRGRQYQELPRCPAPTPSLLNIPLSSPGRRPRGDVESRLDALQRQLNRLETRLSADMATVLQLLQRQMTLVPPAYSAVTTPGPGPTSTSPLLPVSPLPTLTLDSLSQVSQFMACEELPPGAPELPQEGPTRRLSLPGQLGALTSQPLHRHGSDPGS

Kb (human H4 receptor [1]) | Kb (human H4 receptor [2]) | Structure (SMILES) | inhibition at 30 µM (hERG) | also measured
100 nM |  | Nc1nc(-c2cc(C(F)(F)F)n[nH]2)cc(N2CC[C@@H](N)C2)n1 [Example 3-5] | 19% | 
1.26 nM | 0.501 nM | CN[C@@H]1CCN(c2cc(-c3[nH]ncc3C)nc(N)n2)C1 [Example 4-1, (R)-4-(4-methyl-1H-pyrazol-5-yl)-6-(3-(methylamino)pyrrolidin-1-yl)pyrimidin-2-amine] | 14% | IC50 (hERG): ≥ 100000 nM
10 nM |  | CCc1cn[nH]c1-c1cc(N2CC[C@@H](NC)C2)nc(N)n1 [Example 4-2, (R)-4-(4-ethyl-1H-pyrazol-5-yl)-6-(3-(methylamino)pyrrolidin-1-yl)pyrimidin-2-amine] | 25% | 
1.26 nM | 1.26 nM | CN[C@@H]1CCN(c2cc(-c3[nH]ncc3Cl)nc(N)n2)C1 [Example 4-3, (R)-4-(4-chloro-1H-pyrazol-5-yl)-6-(3-(methylamino)pyrrolidin-1-yl)pyrimidin-2-amine] | 34% | 
79.4 nM |  | CN[C@@H]1CCN(c2cc(-c3[nH]ncc3OC)nc(N)n2)C1 [Example 4-4, (R)-4-(4-methoxy-1H-pyrazol-5-yl)-6-(3-(methylamino)pyrrolidin-1-yl)pyrimidin-2-amine] | 14% | 
398 nM |  | CN[C@@H]1CCN(c2cc(-c3cc(C)n(C(F)F)n3)nc(N)n2)C1 [Example 5-2] | 71% | 
20 nM |  | CN[C@@H]1CCN(c2cc(-c3nn(C)cc3C)nc(N)n2)C1 [Example 6-1] | 12% | 
39.8 nM |  | CN[C@@H]1CCN(c2cc(-c3nn(C(F)F)cc3C)nc(N)n2)C1 [Example 6-2] | 94% | 
0.251 nM |  | CN[C@@H]1CCN(c2cc(-c3[nH]nc(C)c3Cl)nc(N)n2)C1 [Example 7-2] | 39% | 
31.6 nM | 20 nM | CCc1n[nH]c(-c2cc(N3CC[C@@H](NC)C3)nc(N)n2)c1C [Example 7-3] |  | 
2 nM |  | Cc1n[nH]c(-c2cc(N3CC[C@@H](N)C3)nc(N)n2)c1Cl [Example 7-7] | 30% | 
100 nM |  | CN[C@@H]1CCN(c2cc(-c3cn[nH]c3)nc(N)n2)C1 [Example 8-1] |  | IC50 (hERG): ≥ 100000 nM
39.8 nM |  | CCn1cc(-c2cc(N3CC[C@@H](NC)C3)nc(N)n2)cn1 [Example 8-3, dihydrochloride] | 12% | 
251 nM |  | CN[C@@H]1CCN(c2cc(-c3cnn(C4CCC4)c3)nc(N)n2)C1 [Example 8-5] | 77% | 
20 nM |  | CN[C@@H]1CCN(c2cc(-c3cnn(C(F)F)c3)nc(N)n2)C1 [Example 8-6] |  | IC50 (hERG): 6310 nM
398 nM |  | CN[C@@H]1CCN(c2cc(-c3cnn(CC(F)(F)F)c3)nc(N)n2)C1 [Example 8-8, dihydrochloride] | 44% | 
2.51 nM |  | Nc1nc(-c2cnn(C(F)(F)F)c2)cc(N2CC[C@@H](N)C2)n1 [Example 8-15, dihydrochloride] | 44% | IC50 (hERG): ≥ 100000 nM
50.1 nM |  | CCn1cc(-c2cc(N3CC[C@@H](N)C3)nc(N)n2)cn1 [Example 8-17, dihydrochloride] | 10% | 
12.6 nM |  | CCc1[nH]ncc1-c1cc(N2CC[C@@H](NC)C2)nc(N)n1 [Example 9-2] | 12% | 
 |  | CN[C@@H]1CCN(c2cc(-c3cn[nH]c3C3CC3)nc(N)n2)C1.O=C(O)C(F)(F)F.O=C(O)C(F)(F)F [Example 9-4] |  | Human H4 CAMP fpKb (human H4 receptor [1]): 7.6; hERG % inhibition at 30 μM (hERG; single concentration 30 μM, QPatch): 17%
501 nM |  | CN[C@@H]1CCN(c2cc(-c3cn(C)nc3C3CC3)nc(N)n2)C1 [Example 11-3, dihydrochloride] | 34% | 
316 nM |  | CN[C@@H]1CCN(c2cc(-c3cn(C)nc3C(F)(F)F)nc(N)n2)C1 [Example 11-4, dihydrochloride] | 46% | 
251 nM |  | CN[C@@H]1CCN(c2cc(-c3cnn(C)c3C#N)nc(N)n2)C1 [Example 12-2] | 14% | 
158 nM |  | CN[C@@H]1CCN(c2cc(-c3cnn4c3CCC4)nc(N)n2)C1 [Example 12-4, dihydrochloride] | 1% | 
20 nM | 12.6 nM | CN[C@@H]1CCN(c2cc(N)nc(-c3cnn(C)c3C)c2)C1 [Example 14-1, (R)-6-(1,5-dimethyl-1H-pyrazol-4-yl)-4-(3-(methylamino)pyrrolidin-1-yl)pyridin-2-amine dihydrochloride] |  | 
3.16 nM |  | CCc1cc(-c2cc(N3CC[C@@H](NC)C3)nc(N)n2)[nH]n1 [Example 15-1] | 68% | 

Kb (human H4 receptor [1]) | Kb (human H4 receptor [2]) | Structure (SMILES) | inhibition at 30 µM (hERG) | also measured
 | 10 nM | CNC1CN(c2cc(-c3cc(C(F)(F)F)n[nH]3)nc(N)n2)C1 [Example 15-2] |  | 
31.6 nM |  | CN[C@H]1CCN(c2cc(-c3[nH]ncc3C)nc(N)n2)C1 [Example 16-1, ditrifluoroacetate] | 32% | 
50.1 nM |  | CNC1(C)CCN(c2cc(-c3[nH]ncc3C)nc(N)n2)C1 (stereo not drawn) [Example 16-2, ditrifluoroacetate] | 9% | 
 | 25.1 nM | CN[C@@H]1CCN(c2cc(-c3[nH]ncc3C(F)F)nc(N)n2)C1 [Example 16-8, ditrifluoroacetate] |  | 
 | 20 nM | CN[C@@H]1CCN(c2cc(-c3[nH]ncc3C(F)(F)F)nc(N)n2)C1 [Example 16-9, ditrifluoroacetate] |  | 
12.6 nM |  | CN[C@@H]1CCN(c2cc(-c3[nH]ncc3F)nc(N)n2)C1 [Example 16-10, ditrifluoroacetate] | 21% | 
7.94 nM |  | Nc1nc(-c2[nH]ncc2Cl)cc(N2CC[C@@H](N)C2)n1 [Example 16-11] | 27% | 
 | 5.01 nM | CNC1CN(c2cc(-c3[nH]ncc3Br)nc(N)n2)C1 [Example 16-13] |  | 
 | 25.1 nM | CN[C@@H]1CCN(c2cc(-c3[nH]ncc3SC)nc(N)n2)C1 [Example 16-14] |  | 
 | 1.58 nM | CNC1CN(c2cc(-c3[nH]nc(C)c3C)nc(N)n2)C1 [Example 17-1] |  | IC50 (hERG): ≥ 31600 nM
5.01 nM |  | CN[C@@H]1CCN(c2cc(-c3[nH]nc(C)c3C(F)(F)F)nc(N)n2)C1 [Example 17-2] | 39% | 
 | 3.98 nM | CN[C@@H]1CCN(c2cc(-c3[nH]nc(C)c3F)nc(N)n2)C1 [Example 17-3] |  | 
 | 5.01 nM | CN[C@H]1CCN(c2cc(-c3[nH]nc(C)c3Cl)nc(N)n2)C1 [Example 17-4, dihydrochloride] | 39% | 
 | 0.794 nM | CNC1CN(c2cc(-c3[nH]nc(C)c3Cl)nc(N)n2)C1 [Example 17-5] |  | IC50 (hERG): 25100 nM
 | 12.6 nM | Cc1n[nH]c(-c2cc(N3CC(N)C3)nc(N)n2)c1Cl [Example 17-6, ditrifluoroacetate] |  | 
 | 39.8 nM | CN[C@@H]1CCN(c2cc(-c3[nH]nc(C)c3O)nc(N)n2)C1 [Example 17-8] |  | 
 | 3.98 nM | CN[C@@H]1CCN(c2cc(-c3[nH]nc(C)c3OC)nc(N)n2)C1 [Example 17-9] |  | 
0.251 nM |  | CN[C@@H]1CCN(c2cc(-c3[nH]nc(C(F)F)c3C)nc(N)n2)C1 [Example 17-10, ditrifluoroacetate] | 57% | 
 | 3.16 nM | CNC1CN(c2cc(-c3[nH]nc(C(F)F)c3C)nc(N)n2)C1 [Example 17-11, ditrifluoroacetate] |  | 
1.58 nM |  | CN[C@@H]1CCN(c2cc(-c3[nH]nc(C(F)(F)F)c3C)nc(N)n2)C1 [Example 17-12] | 60% | 
 | 50.1 nM | CCc1n[nH]c(-c2cc(N3CC[C@@H](NC)C3)nc(N)n2)c1F [Example 17-13] |  | 
0.0631 nM |  | CN[C@@H]1CCN(c2cc(-c3[nH]nc(Cl)c3C)nc(N)n2)C1 [Example 17-14, dihydrochloride] | 44% | 
0.0501 nM |  | CN[C@@H]1CCN(c2cc(-c3[nH]nc(Cl)c3Cl)nc(N)n2)C1 [Example 17-15] | 75% | 
 | 5.01 nM | CN[C@@H]1CCN(c2cc(-c3[nH]nc(OC)c3Cl)nc(N)n2)C1 [Example 17-17] | 49% | 
 | 0.631 nM | CN[C@@H]1CCN(c2cc(N)nc(-c3[nH]ncc3C)c2)C1 [Example 18-1, ditrifluoroacetate] |  | 

Structure (SMILES) | Kb (human H4 receptor [1]) | Kb (human H4 receptor [2]) | inhibition at 30 µM (hERG) | also measured
Cc1cn[nH]c1-c1cc(N2C[C@H]3CCCN[C@H]3C2)nc(N)n1 [Example 16-7, ditrifluoroacetate] |  | 6.31 nM |  | IC50 (hERG): ≥ 100000 nM
